In this assay the test system is Amaranthus palmeri. Kind of assay: Field test, post-emergence spray: visual injury of Palmer amaranth rated 0 to 100. Particulars: 3 days after treatment, 0.25% non-ionic surfactant. The class given is in vivo. From the text:
Dicamba was applied as Engenia™ herbicide [BAPMA salt-(bis(3-aminopropyl)methylamine))], while 2,4-DB was applied as the commercially available Butyrac® 200 (dimethylamine salt). Herbicides were applied at an appropriate weight of each product dissolved in 1 liter of water. All herbicide treatments were applied with 0.25% by volume of a non-ionic surfactant (Induce®; an adjuvant composition consisting of alkyl aryl polyoxyalkane ethers, alkanolamides, dimethyl siloxane and free fatty acids). The spray solution was applied by a CO2 powered backpack sprayer delivering the spray solution at a rate of 185 liter/ha. The spray solution was applied to a field naturally populated with Palmer amaranth (Amaranthus palmeri) with an average height of 4-6 inches in height, however, plants both larger and smaller plants were in the field at the time of application as well. Palmer amaranth was assessed for visual injury 3 days after treatment and injury was rated on a scale from 0 to 100, whereby 0 equals no herbicidal response and 100 equals complete control of the Palmer amaranth.

Take `O=C(O)CCCOc1ccc(Cl)cc1Cl` [2,4-DB, 4-(2,4-Dichlorophenoxy)butanoic acid]: the “herbicidal activity against Amaranthus palmeri (% control), found” value is, setting by setting: (2,4-DB 17.5 g/ha a.i., Exp. No. 2) 0 % control; (2,4-DB 35 g/ha a.i., Exp. No. 3) 5 % control; (2,4-DB 52.5 g/ha a.i., Exp. No. 4) 15 % control.
Consider `COc1c(Cl)ccc(Cl)c1C(=O)O` [dicamba, 3,6-Dichloro-2-methoxybenzoic acid], for which the “herbicidal activity against Amaranthus palmeri (% control), found” value (dicamba 420 g/ha a.i., Exp. No. 1) was found to be 60 % control.

The record behind these values is patent US10477863B2, “Use of herbicidal compositions for controlling unwanted vegetation” (BASF SE, priority 2015, dated 2019).
